Data: patent US9499570B2, “Boron containing small molecules” (priority 2010, dated 2016)
Entries after “also recorded” stand apart in the source; their conditions may differ.

Assays:
[1] = test system: Schistosoma mansoni schistosomula; experiment: Schistosoma mansoni schistosomula phenotype screen in vitro; conditions: for Schistosomula (juvenile infective form) worm screen phenotype 2 d / Schistosomula (juvenile infective form) worm screen phenotype 3 d / Schistosomula (juvenile infective form) worm screen phenotype 4 d / Schistosomula (juvenile infective form) worm screen phenotype 24 h: Second Set, 5 uM; for Schistosomula phenotype day 2 / Schistosomula phenotype day 4 / Schistosomula phenotype day 6 / Schistosomula phenotype day 3 / Schistosomula phenotype 24 h: First Set
Source text: (§1) Puerto Rican isolates of S. mansoni using Biomphalaria glabrata snails and golden hamsters as intermediate and definitive hosts, respectively, were maintained and handled in the University of California-San Francisco Sandler Center for Tropical Medicine. Patent B. glabrata snails (6-8 weeks after exposure to 5-10 infectious miracidia) were induced to shed infective larvae (cercariae) under light stimulus into the surrounding water. Cercariae were washed in rounds of ice-cold water and concentrated through and over sieves of varying pore sizes. They were then mechanically sheared (separation of heads from tails) as described in Colley D G, et al. Exp Parasitol 1974, 35:44-51, in ice-cold Incomplete Medium 169 (as described in Basch P F. J Parasitol 1981, 67:179-185, minus FBS and antibiotics) by passing 15 times through a double headed 22-gauge syringe needle connected to two 10 mL syringes. The resulting cercarial heads (schistosomula) were separated from their tails by swirling in a petri dish. Concentrated schistosomula were added to a sterile 1.5 mL centrifuge tube and allowed to settle over ice. Schistosomula were transferred to a sterile environment and washed 4 times in Incomplete Medium 169 prior to plating.
(§2) Two sets of screening were performed. In the first set, compounds were screened against schistosomula and observations were made at 24 hours, 2 days, 3 days, 4 days, and 6 days. In the second set, compounds were screened against schistosomula with observations at 24 hours, 2 days, 3 days, and 4 days and adult worms at 7 hours, 24 hours, 4 days, and 6 days.
Plates contain 200 schistosomula/well in […] complete Basch medium and were maintained at 37° C. in a 5% CO2 atmosphere. All compounds were tested in duplicate with at least two experimental replicates. Compounds and control compounds were added to the plates using the Biomek FXp using 96-well disposable tips. Final concentration of DMSO in each well was 0.5%.
(§3) A semi-quantitative and controlled nomenclature for phenotypes that can arise as a result of compound insult to both schistosomula and adults was utilized (Abdulla M H, et al., PLoS Negl Trop Dis 2009, 3:e478). Phenotypes were recorded by visual inspection and on a flexible time basis but at least at 24 h and 4 day time-points in the case of large scale screening. […] To help eliminate bias, two screen analysts scored phenotypes ‘blind’ both to knowledge of the contents of each screening plate and the phenotypes scored by his/her colleague. Upon completing their individual assessments, each analyst's ‘hit sheet’ was then compared to derive a ‘consensus hit sheet’. Discrepancies in analysts' hit sheets were re-evaluated under the microscope to eventually make a consensus hit call.
(§4) Hyper-coiled and coiled represent a verbal description of the visual phenotype as compared to the DMSO control. The + and ++ and +++ means more of the phenotype which preceded it. The − means less of the phenotype which preceded it. Results

[2] = test system: Schistosoma mansoni adult worms; experiment: Schistosoma mansoni adult worm phenotype screen in vitro; conditions: Second Set, 5 uM
Source text: as §1, §2
Given the delicacy and size (0.5-1.5 cm in length) of this stage all operations were performed manually by the Sandler Center. 24-well plates were set up with compound (final DMSO concentration=0.5%) containing approximately 5 pairs of worms (S. mansoni has separate sexes) in 2 mL complete Basch medium per well. Plates were maintained at 37° C. in a 5% CO2 atmosphere. All compounds were tested in duplicate with at least two experimental replicates.
as §3, §4

## N#Cc1ccc(Oc2ccc3c(c2)COB3O)nc1OC1CCCC1 [2-Cyclopentyloxy-6-(1-hydroxy-1,3-dihydro-benzo[c][1,2]oxaborol-5-yloxy)-nicotinonitrile]
[1]
  Schistosomula (juvenile infective form) worm screen phenotype 2 d: O++, R−, and some and deg-M
  Schistosomula (juvenile infective form) worm screen phenotype 3 d: O++, R−, and some and deg-M
  Schistosomula (juvenile infective form) worm screen phenotype 4 d: O++, R−,; also recorded: some deg-M
[2]
  Adult worm screen phenotype 7 h: O+
  Adult worm screen phenotype 24 h: O−
  Adult worm screen phenotype 4 d: v, slow, sex; also recorded: sep, on sides
  Adult worm screen phenotype 6 d*: Dark, S,; also recorded: Partial D (Partial D=partial killing of worm population)

## CCOC(=O)c1ccc(Oc2ccc3c(c2)COB3O)c(Oc2cc(C#N)ccn2)c1 [5-[4-Ethoxycarbonyl-2-(4-cyanopyridin-2-yloxy)phenoxy]-1,3-dihydro-1-hydroxy-2,1-benzoxaborole]
[1]
  Schistosomula phenotype day 2: O, (O=overactive); also recorded: deg-m
  Schistosomula phenotype day 4: O, (O=overactive) and some and deg-m
  Schistosomula phenotype day 6: R, O,; also recorded: Partial D (Partial D=partial killing of worm population)

## N#Cc1ccc(Oc2ccc3c(c2)COB3O)nc1OCC(F)(F)F [6-(1-Hydroxy-1,3-dihydro-benzo[c][1,2]oxaborol-5-yloxy)-2-(2,2,2-trifluoro-ethoxy)-nicotinonitrile]
[1]
  Schistosomula phenotype day 6: O+ R and Partial D (Partial D=partial killing of worm population)

## COCCNc1nc(Oc2ccc3c(c2)COB3O)ccc1C#N [6-(1-Hydroxy-1,3-dihydro-benzo[c][1,2]oxaborol-5-yloxy)-2-(2-methoxy-ethylamino)-nicotinonitrile]
[1]
  Schistosomula phenotype day 6: R O and some and partial D

## CC(=O)OCCOc1nc(Oc2ccc3c(c2)COB3O)ccc1C#N [6-(1-Hydroxy-1,3-dihydro-benzo[c][1,2]oxaborol-5-yloxy)-2-(acetyloxyethoxy)-nicotinonitrile]
[1]
  Schistosomula phenotype day 3: O+ and partial D
  Schistosomula phenotype day 6: R O+ and Partial D (Partial D=partial killing of worm population)

## CC(C)COc1nc(Oc2ccc3c(c2)COB3O)ccc1C#N [6-(1-Hydroxy-1,3-dihydro-benzo[c][1,2]oxaborol-5-yloxy)-2-isobutoxy-nicotinonitrile]
[1]
  Schistosomula phenotype 24 h: R− and O−
  Schistosomula phenotype day 4: R (R=round) and O−

## CC(C)Oc1nc(Oc2ccc3c(c2)COB3O)ccc1C#N [6-(1-Hydroxy-1,3-dihydro-benzo[c][1,2]oxaborol-5-yloxy)-2-isopropoxy-nicotinonitrile]
[1]
  Schistosomula phenotype day 3: O+ and Deg-M (Deg-M=worms in morphological disarray but still living)
  Schistosomula phenotype day 6: R O+ and Partial D (Partial D=partial killing of worm population)

## CCCOc1nc(Oc2ccc3c(c2)COB3O)ccc1C#N [6-(1-Hydroxy-1,3-dihydro-benzo[c][1,2]oxaborol-5-yloxy)-2-propoxy-nicotinonitrile]
[1]
  Schistosomula phenotype day 3: O+ and Deg-M (Deg-M=worms in morphological disarray but still living)
  Schistosomula phenotype day 6: R O and partial D

## N#Cc1ccc(Oc2ccc3c(c2)COB3O)nc1N1CCCC1 [6-(1-Hydroxy-1,3-dihydro-benzo[c][1,2]oxaborol-5-yloxy)-2-pyrrolidin-1-yl-nicotinonitrile]
[1]
  Schistosomula phenotype day 3: O+ and Deg-M (Deg-M=worms in morphological disarray but still living)
  Schistosomula phenotype day 6: R O and Partial D (Partial D=partial killing of worm population)

## N#Cc1cnc(Oc2ccc3c(c2)COB3O)cc1OCCOC1CCCCO1 (centres unmarked) [6-(1-Hydroxy-1,3-dihydro-benzo[c][1,2]oxaborol-5-yloxy)-4-[2-(tetrahydro-pyran-2-yloxy)-ethoxy]-nicotinonitrile]
[1]
  Schistosomula phenotype 24 h: O++ and deg-M
  Schistosomula phenotype day 3: O++ and deg-M
  Schistosomula phenotype day 6: Deg-M D

## COCCN(C)c1nc(Oc2ccc3c(c2)COB3O)ccc1C#N [6-(1-hydroxy-1,3-dihydro-benzo[c][1,2]oxaborol-5-yloxy)-2-[(2-methoxy-ethyl)-methyl-amino]-nicotinonitrile]
[1]
  Schistosomula phenotype day 3: O+ and Deg-M (Deg-M=worms in morphological disarray but still living)
  Schistosomula phenotype day 6: R O and Partial D (Partial D=partial killing of worm population)

## N#Cc1ccc(Oc2ccc3c(c2)COB3O)nc1 [6-(1-hydroxy-1,3-dihydrobenzo[c][1,2]oxaborol-5-yloxy)nicotinonitrile]
[1]
  Schistosomula phenotype day 4: O−, and R−
  Schistosomula (juvenile infective form) worm screen phenotype 24 h: R−, O−
  Schistosomula (juvenile infective form) worm screen phenotype 2 d: R−, O−, and some and deg-M
  Schistosomula (juvenile infective form) worm screen phenotype 3 d: O, some; also recorded: deg-M
  Schistosomula (juvenile infective form) worm screen phenotype 4 d: O, some deg-M
[2]
  Adult worm screen phenotype 7 h: O−

## COc1nc(Oc2cc3c(cc2F)B(O)OC3)ccc1C#N [6-(6-Fluoro-1-hydroxy-1,3-dihydrobenzo[c][1,2]oxaborol-5-yloxy)-2-methoxynicotinonitrile]
[1]
  Schistosomula phenotype day 6: R O and some and partial D
  Schistosomula (juvenile infective form) worm screen phenotype 24 h: R, O++,; also recorded: some deg-m
  Schistosomula (juvenile infective form) worm screen phenotype 2 d: O+++, and R−, and some and deg-M
  Schistosomula (juvenile infective form) worm screen phenotype 3 d: O+++, and some and deg-M
  Schistosomula (juvenile infective form) worm screen phenotype 4 d: O+++, some; also recorded: deg-M
[2]
  Adult worm screen phenotype 7 h: O++
  Adult worm screen phenotype 24 h: O++ sex sep
  Adult worm screen phenotype 4 d: O+, sex sep; also recorded: males dark
  Adult worm screen phenotype 6 d*: Dark, Partial D

## CC(C)OCCOc1nc(Oc2ccc3c(c2)COB3O)ccc1C#N [D140, 6-(1-Hydroxy-1,3-dihydrobenzo[c][1,2]oxaborol-5-yloxy)-2-(2-isopropoxyethoxy)nicotinonitrile, reference compound]
[1]
  Schistosomula (juvenile infective form) worm screen phenotype 24 h: R, O++,; also recorded: some deg-m
  Schistosomula (juvenile infective form) worm screen phenotype 2 d: O+++, and R−, and some and deg-M
  Schistosomula (juvenile infective form) worm screen phenotype 3 d: O+++, R, and some and deg-M
  Schistosomula (juvenile infective form) worm screen phenotype 4 d: O+++, R,; also recorded: some deg-M
[2]
  Adult worm screen phenotype 7 h: O++
  Adult worm screen phenotype 24 h: O++ sex sep
  Adult worm screen phenotype 4 d: O, sex sep,

## CCOC(=O)c1ccc(Oc2ccc3c(c2)COB3O)nc1OCC [Ethyl 2-ethoxy-6-(1-hydroxy-1,3-dihydrobenzo[c][1,2]oxaborol-5-yloxy)nicotinate]
[1]
  Schistosomula phenotype day 2: (shrunk)
  Schistosomula phenotype day 4: O, (O=overactive); also recorded: deg-m
  Schistosomula phenotype day 6: R, (R=round); also recorded: Partial D (Partial D=partial killing of worm population)

## CCOC(=O)c1cnc(Oc2ccc3c(c2)COB3O)c(Cl)c1 [Ethyl 5-chloro-6-(1-hydroxy-1,3-dihydrobenzo[c][1,2]oxaborol-5-yloxy)nicotinate]
[1]
  Schistosomula phenotype day 6: R O and deg-M and partial D

## CC(C)OC(=O)c1ccc(Oc2ccc3c(c2)COB3O)nc1 [Isopropyl 6-(1-hydroxy-1,3-dihydrobenzo[c][1,2]oxaborol-5-yloxy)nicotinate]
[1]
  Schistosomula phenotype day 2: O, (O=overactive); also recorded: deg-m
  Schistosomula phenotype day 4: O, R, and some and deg-m
  Schistosomula phenotype day 6: O, R,; also recorded: Partial D (Partial D=partial killing of worm population)

## CC(=O)NCc1ccc(Oc2ccc3c(c2)COB3O)cc1 [N-[4-(1-Hydroxy-1,3-dihydro-benzo[c][1,2]oxaborol-5-yloxy)-benzy]-acetamide]
[1]
  Schistosomula phenotype day 4: D (D=dead)

## CCCCOC(=O)c1ccc(Oc2ccc3c(c2)COB3O)nc1 [n-Butyl 6-(1-hydroxy-1,3-dihydrobenzo[c][1,2]oxaborol-5-yloxy)nicotinate]
[1]
  Schistosomula phenotype day 2: (strong); also recorded: O, deg-m
  Schistosomula phenotype day 4: deg-m,; also recorded: (shrunk); also recorded: O, R,
  Schistosomula phenotype day 6: deg-m; also recorded: O, R, D,

## CCCOC(=O)c1ccc(Oc2ccc3c(c2)COB3O)nc1 [n-Propyl 6-(1-hydroxy-1,3-dihydrobenzo[c][1,2]oxaborol-5-yloxy)nicotinate]
[1]
  Schistosomula phenotype day 2: O+ and (shrunk)
  Schistosomula phenotype day 6: O, R,; also recorded: Partial D (Partial D=partial killing of worm population)
